In ChEMBL document CHEMBL1135386, “Development of potent and selective dipeptidyl peptidase II inhibitors” (Bioorg Med Chem Lett, 2002):

Columns and labels:
Dipeptidyl peptidase 4 [1] = biological target: T1, Dipeptidyl peptidase 4 (Homo sapiens, UniProt P27487)
[2] = biological target: Dipeptidyl peptidase II and dipeptidyl peptidase IV (DPP2 and DPP4) (Homo sapiens) (UniProt P27487+Q9UHL4); experiment: Selectivity index against Dipeptidyl Peptidase IV and Dipeptidyl Peptidase II inhibitory activities; assay type: protein assay
Dipeptidyl peptidase 2 [3] = biological target: T2, Dipeptidyl peptidase 2 (Homo sapiens, UniProt Q9UHL4)
Dipeptidyl peptidase 4 [4] = biological target: T1, Dipeptidyl peptidase 4; remark: listed apart in the source
Dipeptidyl peptidase 2 [5] = biological target: T2, Dipeptidyl peptidase 2; experiment: Inhibitory activity against Dipeptidyl Peptidase II

T1 sequence (P27487 whole entry): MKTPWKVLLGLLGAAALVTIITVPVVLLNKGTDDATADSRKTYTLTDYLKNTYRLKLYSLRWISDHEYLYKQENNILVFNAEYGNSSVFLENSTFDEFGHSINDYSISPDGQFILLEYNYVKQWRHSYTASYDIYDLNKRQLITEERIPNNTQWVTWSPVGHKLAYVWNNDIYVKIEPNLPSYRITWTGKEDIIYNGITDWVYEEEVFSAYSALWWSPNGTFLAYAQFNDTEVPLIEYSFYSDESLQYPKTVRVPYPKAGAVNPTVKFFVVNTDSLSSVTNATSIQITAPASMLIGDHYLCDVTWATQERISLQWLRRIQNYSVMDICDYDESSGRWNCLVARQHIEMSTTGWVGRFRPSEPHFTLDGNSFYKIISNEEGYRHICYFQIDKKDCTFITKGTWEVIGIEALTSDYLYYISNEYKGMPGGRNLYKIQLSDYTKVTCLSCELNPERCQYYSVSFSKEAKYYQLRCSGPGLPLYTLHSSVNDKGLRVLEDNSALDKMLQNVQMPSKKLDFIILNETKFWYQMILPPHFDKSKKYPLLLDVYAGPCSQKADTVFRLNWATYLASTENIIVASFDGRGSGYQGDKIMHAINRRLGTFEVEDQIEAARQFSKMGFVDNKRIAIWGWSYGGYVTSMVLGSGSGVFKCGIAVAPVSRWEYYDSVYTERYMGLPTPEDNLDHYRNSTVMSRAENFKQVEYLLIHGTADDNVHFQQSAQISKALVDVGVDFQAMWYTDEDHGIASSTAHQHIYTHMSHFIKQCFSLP

IC50 (Dipeptidyl peptidase 4 [1]) [µM]	SMILES	other results
247	NCCCCC(N)C(=O)N1CCCCC1 (configuration not stated)	SI [2]: 154
122	N[C@@H](CC(=O)O)C(=O)N1CCCC1	
> 500	NCCCC(N)C(=O)N1CCCCC1 (configuration not stated)	SI [2]: > 1110
67	CCC(C)C(N)C(=O)N1CCCCC1 (configuration not stated)	
41	C[C@H](N)C(=O)N1CCCC1	
> 1000	NC[C@H](N)C(=O)N1CCCCC1	
21	NC(Cc1ccccc1)C(=O)N1CCCC1 (configuration not stated)	
217	N[C@@H](CC1CCCCC1)C(=O)N1CCCCC1	
190	NC(CO)C(=O)N1CCCC1 (configuration not stated)	
> 500	S=C(C1CCCN1)N1CCCC1 (configuration not stated)	
213	NC(Cc1c[nH]cn1)C(=O)N1CCCCC1 (configuration not stated)	
	C[C@H](N)C(=S)N1CCCC1	Ki (Dipeptidyl peptidase 2 [3]): 1.43 µM; Ki (Dipeptidyl peptidase 4 [4]): 47.6 µM
39	NCCCCC(N)C(=O)N1CCCC1 (configuration not stated)	
14	NC(Cc1ccc(O)cc1)C(=O)N1CCCC1 (configuration not stated)	
23.2	NC(Cc1c[nH]cn1)C(=O)N1CCCC1 (configuration not stated)	
188	NC(=O)CC(N)C(=O)N1CCCC1 (configuration not stated)	
	C[C@H](N)C(=S)N1CCSC1	Ki (Dipeptidyl peptidase 2 [3]): 0.277 µM; Ki (Dipeptidyl peptidase 4 [4]): 7.88 µM
> 1000	NCC(=O)N1CCCC1	
	C[C@H](N)C(=O)N1CCC[C@H]1C#N	IC50 (Dipeptidyl peptidase 2 [5]): 110 µM
135	NCCCCC(NC(=O)OCc1ccccc1)C(=O)N1CCCCC1 (configuration not stated)	SI [2]: 64

SMILES	IC50 (Dipeptidyl peptidase 4 [1]) [µM]	other results
NCC[C@H](N)C(=O)N1CCCCC1	> 1000	SI [2]: > 7590
